{
  "source": "patent EP2881399B1",
  "about": "“New thiosemicarbazone chelates having anticancer activity” (priority 2013, dated 2015)",
  "format_in_all_cases": "cell-based",
  "key": {"[1]": {"tested_on": "ECV304", "assay": "DNA fragmentation by diphenylamine reaction", "settings": "ECV304, end of 72 hours at identified IC50 concentrations", "protocol": "(§1) IC50 (the concentration inhibiting the proliferation of 50% of cells) of these 4 new compounds presented is identified by cytotoxicity tests in K562 (leukaemia) and ECV304 (endothelial) cells. Subsequently, it is studied to understand pathway through which the death of the cells is occurred (the mechanism of action) after the cells are treated for 72 hours at these concentrations. The apoptosis is analysed with immununocytochemical methods and flow cytometry and DNA fragmentation is analysed with diphenylamine reaction. […] The inventors also analysed DNA fragmentation rates occurred in cells at the end of 72 hours at identified IC50 concentrations."}, "[2]": {"tested_on": "K562", "assay": "DNA fragmentation by diphenylamine reaction", "settings": "K562, end of 72 hours at identified IC50 concentrations", "protocol": "as §1"}, "[3]": {"tested_on": "K562 (leukaemia) cells", "assay": "cytotoxicity test (MTT), IC50 after 72 hours incubation", "protocol": "(§2) IC50 (the concentration inhibiting the proliferation of 50% of cells) of these 4 new compounds presented is identified by cytotoxicity tests in K562 (leukaemia) and ECV304 (endothelial) cells. Subsequently, it is studied to understand pathway through which the death of the cells is occurred (the mechanism of action) after the cells are treated for 72 hours at these concentrations. The apoptosis is analysed with immununocytochemical methods and flow cytometry and DNA fragmentation is analysed with diphenylamine reaction. […] DNA fragmentation is found high in all experiment groups (70-80%). These rates are compatible with IC50 obtained with MTT test because IC50 is the dose which kills the 50% of the cells. […] Furthermore, this rate is compatible with the percentage of total dead cells (52-64 %) which is the addition of apoptotic and necrotic cells obtained by annexin/PI dyeing."}, "[4]": {"tested_on": "ECV304 (endothelial) cells", "assay": "cytotoxicity test (MTT), IC50 after 72 hours incubation", "settings": "incubated for 72 hours", "protocol": "as §2"}, "[5]": {"tested_on": "K562 cells", "assay": "flow cytometry with Annexin V and PI dyeing (apoptosis / necrosis)", "settings": "K562, 72 hours at IC50 concentration; for Living cell (%) / Necrotic cell (%) / Post- apoptotic cell (%) / Pre- apoptotic cell (%): Annexin V and PI; for Dead cell (%): addition of apoptotic and necrotic cells", "protocol": "The Figure 2 gives the flow cytometry images of K562 cells, undergoing pre-apoptosis, post-apoptosis and necrosis, which are dyed with Annexin V and PI, after being incubated with thiosemicarbazones of the invention for 72 hours. Herein the images are as follows; A) Control, B) Compound I (0.6µg/ml), C) Compound II (0.6µg/ml), D) […], and E) Compound IV (0.1µg/ml). […] The inventors have characterized cells treated with compounds I-IV in the conditions of Figure 2 in order to better observe the mechanism of action of thiosemicarbazones presented in the current invention."}, "[6]": {"settings": "K562, as listed in Table 3, rounded, the concentration applied in the flow cytometry"}, "[7]": {"settings": "K562 cells, incubated for 72 hours"}},
  "data": [
    {"compound": "COc1ccc2c(c1)[O][Ni][O]c1c(O)cccc1C=NN=C(SC)N=C2", "note": "[Compound I, N(1)-3-hydroxysalicylidene-N(4)-4-methoxysalicylideneisothio-semicarbazidato Nickel (II)]", "values": [
      {"measurement": "DNA fragmentation %", "setting": "[1]", "value": "20±0.5", "unit": "%"},
      {"measurement": "DNA fragmentation %", "setting": "[2]", "value": "80±1.4", "unit": "%"},
      {"measurement": "IC50", "setting": "[3]; [6]", "value": 0.6, "unit": "µg/mL"},
      {"measurement": "IC50", "setting": "[3]; [7]", "value": 0.61, "unit": "microgram/ml"},
      {"measurement": "IC50", "setting": "[4]", "value": ">5", "unit": "microgram/ml"},
      {"measurement": "Apoptosis / Necrosis ratio", "setting": "[5]", "value": 13.56},
      {"measurement": "Living cell (%)", "setting": "[5]", "value": 35.18, "unit": "%"},
      {"measurement": "Necrotic cell (%)", "setting": "[5]", "value": 2.57, "unit": "%"},
      {"measurement": "Post- apoptotic cell (%)", "setting": "[5]", "value": 27.39, "unit": "%"},
      {"measurement": "Pre- apoptotic cell (%)", "setting": "[5]", "value": 34.85, "unit": "%"},
      {"measurement": "Dead cell (%)", "setting": "[5]", "value": 64.82, "unit": "%"}
    ]},
    {"compound": "COc1ccc2c(c1)[O][Fe]([Cl])[O]c1cc(O)ccc1C=NN=C(SC)N=C2", "note": "[Compound IV, Monochloro-N(1)-4-hydroxysalicylidene-N(4)-4-methoxy-salicylideneisothiosemicarbazidato Iron (III)]", "values": [
      {"measurement": "DNA fragmentation %", "setting": "[1]", "value": "28±2.4", "unit": "%"},
      {"measurement": "DNA fragmentation %", "setting": "[2]", "value": "84±1.4", "unit": "%"},
      {"measurement": "IC50", "setting": "[3]; [6]", "value": 0.1, "unit": "µg/mL"},
      {"measurement": "IC50", "setting": "[3]; [7]", "value": 0.1, "unit": "microgram/ml"},
      {"measurement": "IC50", "setting": "[4]", "value": ">5", "unit": "microgram/ml"},
      {"measurement": "Apoptosis / Necrosis ratio", "setting": "[5]", "value": 17.77},
      {"measurement": "Living cell (%)", "setting": "[5]", "value": 41.07, "unit": "%"},
      {"measurement": "Necrotic cell (%)", "setting": "[5]", "value": 2.11, "unit": "%"},
      {"measurement": "Post- apoptotic cell (%)", "setting": "[5]", "value": 19.32, "unit": "%"},
      {"measurement": "Pre- apoptotic cell (%)", "setting": "[5]", "value": 37.5, "unit": "%"},
      {"measurement": "Dead cell (%)", "setting": "[5]", "value": 58.93, "unit": "%"}
    ]},
    {"compound": "COc1ccc2c(c1)[O][Ni][O]c1cc(O)ccc1C=NN=C(SC)N=C2", "note": "[III, N(1)-4-hydroxysalicylidene-N(4)-4-methoxysalicylideneisothio-semicarbazidato Nickel (II)]", "values": [
      {"measurement": "DNA fragmentation %", "setting": "[1]", "value": "22±1.7", "unit": "%"},
      {"measurement": "DNA fragmentation %", "setting": "[2]", "value": "75±1.4", "unit": "%"},
      {"measurement": "IC50", "setting": "[3]; [6]", "value": 0.6, "unit": "µg/mL"},
      {"measurement": "IC50", "setting": "[3]; [7]", "value": 0.65, "unit": "microgram/ml"},
      {"measurement": "IC50", "setting": "[4]", "value": ">5", "unit": "microgram/ml"},
      {"measurement": "Apoptosis / Necrosis ratio", "setting": "[5]", "value": 11.82},
      {"measurement": "Living cell (%)", "setting": "[5]", "value": 36.11, "unit": "%"},
      {"measurement": "Necrotic cell (%)", "setting": "[5]", "value": 3.17, "unit": "%"},
      {"measurement": "Post- apoptotic cell (%)", "setting": "[5]", "value": 23.23, "unit": "%"},
      {"measurement": "Pre- apoptotic cell (%)", "setting": "[5]", "value": 37.5, "unit": "%"},
      {"measurement": "Dead cell (%)", "setting": "[5]", "value": 63.89, "unit": "%"}
    ]},
    {"compound": "Monochloro-N(1)-3--hydroxysalicylidene-N(4)-4-methox salicylideneisothiosemicarbazidato Iron (III) [Compound II]", "values": [
      {"measurement": "DNA fragmentation %", "setting": "[1]", "value": "18±2.1", "unit": "%"},
      {"measurement": "DNA fragmentation %", "setting": "[2]", "value": "79±0.7", "unit": "%"},
      {"measurement": "IC50", "setting": "[3]; [6]", "value": 0.6, "unit": "µg/mL"},
      {"measurement": "IC50", "setting": "[3]; [7]", "value": 0.62, "unit": "microgram/ml"},
      {"measurement": "IC50", "setting": "[4]", "value": ">5", "unit": "microgram/ml"},
      {"measurement": "Apoptosis / Necrosis ratio", "setting": "[5]", "value": 9.80},
      {"measurement": "Living cell (%)", "setting": "[5]", "value": 47.4, "unit": "%"},
      {"measurement": "Necrotic cell (%)", "setting": "[5]", "value": 3.15, "unit": "%"},
      {"measurement": "Post- apoptotic cell (%)", "setting": "[5]", "value": 18.54, "unit": "%"},
      {"measurement": "Pre- apoptotic cell (%)", "setting": "[5]", "value": 30.9, "unit": "%"},
      {"measurement": "Dead cell (%)", "setting": "[5]", "value": 52.6, "unit": "%"}
    ]}
  ]
}
